“And” between values parts separate entries of the source, which are not always exact repeats. Equal values may be shown once.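 Results reflect a 48-hour exposure of cells in 96-well plates to compound at five concentrations. At the GI50, growth is halved. TGI: total growth inhibition.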
Experiments:
Test in all cases: NCI tumour cell line growth inhibition, 48 h
DMS 114 small cell lung = tested on: DMS 114 small cell lung
HOP-18 NSCLC = tested on: HOP-18 NSCLC
KM20L2 colon = tested on: KM20L2 colon
LXFL 529 NSCLC = tested on: LXFL 529 NSCLC
SNB-78 CNS = tested on: SNB-78 CNS
DLD-1 colon = tested on: DLD-1 colon
XF 498 CNS = tested on: XF 498 CNS
MDA-N = tested on: MDA-N
P388 leukemia = tested on: P388 leukemia
P388/ADR leukemia = tested on: P388/ADR leukemia
SN12K1 renal = tested on: SN12K1 renal
RXF-631 renal = tested on: RXF-631 renal

| SMILES | TGI (DMS 114 small cell lung) | TGI (HOP-18 NSCLC) [µM] | TGI (KM20L2 colon) | TGI (LXFL 529 NSCLC) [µM] | TGI (SNB-78 CNS) [µM] | TGI (DLD-1 colon) [µM] | TGI (XF 498 CNS) [µM] | GI50 (DMS 114 small cell lung) | GI50 (HOP-18 NSCLC) [µM] | GI50 (KM20L2 colon) [µM] | TGI (MDA-N) [µM] | TGI (P388 leukemia) | GI50 (P388/ADR leukemia) | TGI (P388/ADR leukemia) | GI50 (SN12K1 renal) [µM] | GI50 (SNB-78 CNS) | GI50 (XF 498 CNS) [µM] | TGI (RXF-631 renal) [µM] |
| --- | --- | --- | --- | --- | --- | --- | --- | --- | --- | --- | --- | --- | --- | --- | --- | --- | --- | --- |
| O=C1C(=C2CCCC2)CCC1CN1CCCCC1 (stereo not drawn) | 41.2 µM | 28.7 | 32.9 µM | 26.2 | 41.4 |  |  |  |  |  |  |  |  |  |  |  |  |  |
| CCC/C=C\C=C\C1(NS(=O)(=O)c2ccc(C)cc2)CCC(C(C)(C)C)CC1 (stereo not drawn) |  | > 100 | 35.6 µM | > 100 | 72.3 | 45.3 | 35.7 |  |  |  |  |  |  |  |  |  |  |  |
| C[C@H]1C/C=C/[C@H]2[C@@H]3O[C@]3(C)[C@@H](C)[C@H]3[C@H](Cc4ccccc4)NC(=O)[C@]32OC(=O)O/C=C/[C@@](C)(O)C1=O | 9.99 µM and 20.2 µM and 33.3 µM | 0.162 | > 92.3 µM and 125 µM and > 250 µM |  |  |  |  | 0.0706 µM and 0.025 µM | < 0.0116 | 0.0125 | 54 | 15.3 µM and 125 µM and 45.6 µM | 0.434 µM and 0.194 µM and 0.69 µM | 10.5 µM and 14 µM and 40.9 µM | 0.0125 | 0.024 µM and 0.025 µM | < 0.025 |  |
| OB(O)c1ccccc1C#Cc1ccccc1B(O)O |  |  |  |  |  |  |  |  |  |  | 58.4 |  |  |  |  |  |  |  |
| Cc1ccc(S(=O)(=O)NC(=O)NCCc2ccccc2)cc1 | > 100 µM | > 100 | > 100 µM | > 100 | > 100 | > 100 | > 100 |  |  |  |  |  |  |  |  |  |  |  |
| CCOC(=O)C(=O)Nc1cc(Cl)c(Cl)cc1Cl | > 100 µM |  | > 100 µM | > 100 | > 100 |  |  |  |  |  |  |  |  |  |  |  |  | > 100 |
| O=[P+](O)c1ccccn1 | > 100 µM |  | > 100 µM | > 100 | > 100 | > 100 | > 100 |  |  |  |  |  |  |  |  |  |  |  |
| S=c1o[nH]c(-c2ccccc2)c1C=Nc1ccccc1 | > 100 µM |  |  | > 100 | > 100 | > 100 | > 100 |  |  |  |  |  |  |  |  |  |  |  |
| Cc1ccccc1NC(=O)/C=N/O | > 100 µM | > 100 | 32 µM | > 100 |  | > 100 |  |  |  |  |  |  |  |  |  |  |  |  |
| CN(C)CCC(/C=C/c1ccccc1)=N\Nc1ccc(Cl)c(Cl)c1 |  | 8.28 | 4.54 µM | 4.13 | 15.4 | 11 | 7.23 |  |  |  |  |  |  |  |  |  |  | 6.73 |
| COC(=O)CCC(=O)N1C/C(=C\c2ccccc2)C(=O)/C(=C/c2ccccc2)C1 | 3.56 µM | 6.85 | 3.82 µM | 4.13 | 7.83 | 10.9 | 19.2 |  |  |  |  |  |  |  |  |  |  |  |
| Cc1coc2c1C(=O)C(=O)c1ccccc1-2 | 0.326 µM |  | 11.2 µM | 1.41 | 3.13 | 4.26 |  |  |  |  |  |  |  |  |  |  |  |  |
| CCCCCCCCOCC(O)CO (stereo not drawn) | > 100 µM | > 100 | > 100 µM | > 100 | > 100 | > 100 | > 100 |  |  |  |  |  |  |  |  |  |  | > 100 |
| CC(C)(C)OP(=O)(OC(C)(C)C)C(O)c1ccc(/C=C(\C#N)C(N)=O)cc1 (stereo not drawn) | > 100 µM |  | > 100 µM | > 100 | > 100 | > 100 | > 100 |  |  |  |  |  |  |  |  |  |  |  |
| CCCCCCCCCC[C@@H](O)[C@@H]1CC[C@@H]([C@@H]2CC[C@@H]([C@@H](O)CCCCCCCCCC[C@H](O)CC3=CC(C)OC3=O)O2)O1 (stereo partly drawn) | 11.2 µM |  | > 100 µM | 25.6 | 56.2 | > 100 |  |  |  |  |  |  |  |  |  |  |  | 19.4 |
| C/C(=N\NC(N)=S)c1ccc(C)c(C)c1 | 38.3 µM | > 100 | > 100 µM | > 100 | > 100 | > 100 | 48.1 |  |  |  |  |  |  |  |  |  |  | > 100 |
| CC[C@@]1(OC(=O)C(N)CCCCN)C(=O)OCc2c1cc1n(c2=O)Cc2cc3ccccc3nc2-1 (stereo partly drawn) | 0.263 µM | > 23 | 12.5 µM | 4.34 | > 100 | > 27.1 | 1.78 |  |  |  | 4.44 |  |  |  |  |  |  |  |

Source: PubChem BioAssay (NCI)
